Experimental findings from publication PMC10669129 (2023) are described below.

In assay [1] the test system is 5-HT-binding DNA aptamer (44-mer) (DNA, aptamer) CGACTGGTAGGCAGATAGGGGAAGCTGATTCGATGCGTGGGTCG
As to the kind of experiment: single-frequency EIS. The conditions noted are these: Mg2+ 2 mM, 1X PBS; some cross-reactivity; microfluidic flow; concentration not given.

For assay [2] the test system is unchanged. As to the kind of experiment: square wave voltammetry. The conditions noted are these: Mg2+ 2 mM, 1X PBS; apparent; 30 min exposure in 1X PBS; read in ferri/ferrocyanide 5 mM, pH 7.1; Hill fit.
Assay [3] has the same test system. As to the kind of experiment: electrochemical impedance spectroscopy. The conditions noted are these: Mg2+ 2 mM, 1X PBS; apparent; 30 min exposure in 1X PBS; read in ferri/ferrocyanide 5 mM, pH 7.1; Hill fit.
The test system is the same in assay [4]. As to the kind of experiment: EIS and SWV; single-frequency EIS. The conditions noted are these: Mg2+ 2 mM, 1X PBS; selectivity test; highest concentration not given in text.

Consider `O=C(O)Cc1c[nH]c2ccc(O)cc12`, for which, in assay [1], the binding entry is “weak”. On to `NCCc1c[nH]c2ccc(O)cc12`, for which the “kd,eff” value in assay [2] was found to be 306.76 ± 41.54 nM; in assay [3] it was 343.54 ± 61.03 nM. Turning to `N[C@@H](Cc1c[nH]c2ccccc12)C(=O)O`, the binding result in assay [1] is given as “weak”. For `NC[C@H](O)c1ccc(O)c(O)c1`, the binding result in assay [4] is “no”.

On to `NCCc1ccc(O)c(O)c1`, for which the binding entry in assay [4] was “no”.

As for `N[C@@H](Cc1c[nH]c2ccc(O)cc12)C(=O)O`, the binding entry in assay [1] is recorded as “weak”.
